Results from US9771343B2, “2-alkyl-or-aryl-substituted tanshinone derivatives, and preparation method and application thereof” (Hangzhou Bensheng Pharmaceutical Co., Ltd., priority 2011, dated 2017).
≈ marks a conversion by molar mass, not a printed value.

Tests used:
Hep G2 cells = details: in vitro, literature report; cited from earlier work
A549 (human lung cancer) = assay: MTT cell growth inhibition, A549 cells, 72 h; type: cell-based; details: A549, 72 h
Experimental: (§1) The standard sample of tanshinone I (TA) and the 2-alkyl- or 2-aromatic-substituted tanshinone I derivatives of the present invention are sufficiently dissolved in dimethylsulfoxide to produce a stock solution of 10 mg/mL, which is refrigerated at 4° C. and stored in dark, and is diluted with a cell culture medium to the desired concentration prior to experimentation.
(§2) Obtaining 6000 well-growing human solid tumor cells and inoculating them into wells of a 96-well cell culture plate. The culture medium is DMEM High Glucose cell culture medium containing 10% fetal bovine serum. The plate is placed in a carbon dioxide cell incubator (5% CO2) at 37° C. and incubated for 24 hours. After adding the 2-alkyl- or 2-aromatic-substituted tanshinone I derivatives of different concentrations and mixing uniformly, the plate is placed in a carbon dioxide cell incubator (5% CO2) at 37° C. and incubated for 72 hours. Then the viable cell concentration is determined by MTT method. In this experiment, the cell viability in control group (not treated with any compound) is set as 100%, and the cell viability (%) after treatment by the compounds and the half maximum inhibitory concentration for the leukemia cell at 72 hours (IC50 value of 72 hours, μg/mL) are calculated.

[1] = tested on: SGC-7901 human gastric adenocarcinoma cells; details: concentration dependent within a certain range, literature report; cited from earlier work
[2] = tested on: MGC 803 (human gastric cancer cell); assay: MTT cell growth inhibition, MGC 803 cells, 72 h; type: cell-based; details: MGC-803, 72 h
Experimental: as §1, §2

[3] = tested on: CaES-17 (esophageal cancer cell); assay: MTT cell growth inhibition, CaES-17 cells, 72 h; type: cell-based, human; details: CaEs-17, 72 h
Experimental: as §1, §2

[4] = tested on: K562/adr (drug-resistant, chronic myeloid leukemia, CML); assay: MTT cell growth inhibition, K562/adr leukemia cells, 72 h; type: cell-based; details: K562/ADR
Experimental: (§3) The standard sample of tanshinone I (TA) and the 2-alkyl- or 2-aromatic-substituted tanshinone I derivatives of the present invention are sufficiently dissolved in dimethylsulfoxide to produce a stock solution of 10 mg/mL, which is refrigerated at 4° C. and stored in dark, and is diluted with cell culture medium to a desired concentration prior to experimentation.
as §2, with “leukemia” for “human solid tumor”, “the RPMI-1640” for “DMEM High Glucose”, “serum.” for “serum. The plate is placed in a carbon dioxide cell incubator (5% CO2) at 37° C. and incubated for 24 hours.”, “adding on the second day” for “adding”, “uniformly, placing” for “uniformly,”, “plate” for “plate is placed”

[5] = tested on: NB4 (acute promyelocytic leukemia, AML); assay: MTT cell growth inhibition, NB4 leukemia cells, 72 h; type: cell-based; details: NB4, 72 h
Experimental: as §3
as §2, with “leukemia” for “human solid tumor”, “the RPMI-1640” for “DMEM High Glucose”, “serum.” for “serum. The plate is placed in a carbon dioxide cell incubator (5% CO2) at 37° C. and incubated for 24 hours.”, “adding on the second day” for “adding”, “uniformly, placing” for “uniformly,”, “plate” for “plate is placed”

[6] = tested on: RKO (human colon adenocarcinoma cell); assay: MTT cell growth inhibition, RKO cells, 72 h; type: cell-based; details: RKO, 72 h
Experimental: as §1, §2

MG63 (osteosarcoma) = assay: MTT cell growth inhibition, MG63 cells, 72 h; type: cell-based, human; details: MG-63, 72 h
Experimental: as §1, §2

[7] = tested on: PANC-1 (pancreatic cancer); assay: MTT cell growth inhibition, PANC-1 cells, 72 h; type: cell-based, human; details: PANC-1, 72 h
Experimental: as §1, §2

[8] = tested on: RPMI8226 (multiple myeloma); assay: MTT cell growth inhibition, RPMI8226 multiple myeloma cells, 72 h; type: cell-based, human; details: RPMI 8226, 72 h
Experimental: as §3
as §2, with “leukemia” for “human solid tumor”, “the RPMI-1640” for “DMEM High Glucose”, “serum.” for “serum. The plate is placed in a carbon dioxide cell incubator (5% CO2) at 37° C. and incubated for 24 hours.”, “adding on the second day” for “adding”, “uniformly, placing” for “uniformly,”, “plate” for “plate is placed”

[9] = tested on: Hep G2 (human liver cancer cell); assay: MTT cell growth inhibition, Hep G2 cells, 72 h; type: cell-based; details: Hep G2, 72 h
Experimental: as §1, §2

[10] = tested on: SK-OV-3 (ovarian cancer cell); assay: MTT cell growth inhibition, SK-OV-3 cells, 72 h; type: cell-based, human; details: SK-OV-3, 72 h
Experimental: as §1, §2

[11] = tested on: Kasumi-1 (acute myeloid leukemia M2 type, AML-M2); assay: MTT cell growth inhibition, Kasumi-1 leukemia cells, 72 h; type: cell-based; details: Kasumi-1, 72 h
Experimental: as §3
as §2, with “leukemia” for “human solid tumor”, “the RPMI-1640” for “DMEM High Glucose”, “serum.” for “serum. The plate is placed in a carbon dioxide cell incubator (5% CO2) at 37° C. and incubated for 24 hours.”, “adding on the second day” for “adding”, “uniformly, placing” for “uniformly,”, “plate” for “plate is placed”

[12] = background statement; cited from earlier work
[13] = tested on: Jurkat (acute lymphoblastic leukemia, ALL); assay: MTT cell growth inhibition, Jurkat leukemia cells, 72 h; type: cell-based; details: 72 h
Experimental: as §3
as §2, with “leukemia” for “human solid tumor”, “the RPMI-1640” for “DMEM High Glucose”, “serum.” for “serum. The plate is placed in a carbon dioxide cell incubator (5% CO2) at 37° C. and incubated for 24 hours.”, “adding on the second day” for “adding”, “uniformly, placing” for “uniformly,”, “plate” for “plate is placed”

PC-3 (prostate cancer) = assay: MTT cell growth inhibition, PC-3 cells, 72 h; type: cell-based, human; details: PC-3, 72 h
Experimental: as §1, §2

[14] = tested on: Hela (human cervical cancer cell); assay: MTT cell growth inhibition, Hela cells, 72 h; type: cell-based; details: Hela, 72 h
Experimental: as §1, §2

[15] = tested on: Becap37 (human breast cancer cell); assay: MTT cell growth inhibition, Becap37 cells, 72 h; type: cell-based; details: Becap-37, 72 h
Experimental: as §1, §2

[16] = background statement; cited from earlier work; remark: listed apart in the source
[17] = tested on: Hep-2 (laryngeal carcinoma); assay: MTT cell growth inhibition, Hep-2 cells, 72 h; type: cell-based, human; details: Hep-2, 72 h
Experimental: as §1, §2

[18] = tested on: CNE (nasopharyngeal carcinoma cell); assay: MTT cell growth inhibition, CNE cells, 72 h; type: cell-based, human; details: CNE, 72 h
Experimental: as §1, §2

[19] = tested on: H9 (acute lymphoblastic leukemia, ALL); assay: MTT cell growth inhibition, H9 leukemia cells, 72 h; type: cell-based; details: H9, 72 h
Experimental: as §3
as §2, with “leukemia” for “human solid tumor”, “the RPMI-1640” for “DMEM High Glucose”, “serum.” for “serum. The plate is placed in a carbon dioxide cell incubator (5% CO2) at 37° C. and incubated for 24 hours.”, “adding on the second day” for “adding”, “uniformly, placing” for “uniformly,”, “plate” for “plate is placed”

tumor-bearing nude mice = details: literature report; cited from earlier work
[20] = tested on: U87 MG (malignant glioma cell); assay: MTT cell growth inhibition, U87 MG cells, 72 h; type: cell-based, human; details: U87-MG, 72 h
Experimental: as §1, §2

For Cc1coc2c1C(=O)C(=O)c1c-2ccc2c(C)cccc12 [TA, 1,6-dimethyl-phenanthreno [1,2-b]furan-10,11-diketone, reference compound], the “effect on proliferation of Hep G2 cells” value (Hep G2 cells) is given as “can inhibit the proliferation of Hep G2 cells”, the IC50 (A549 (human lung cancer)) is given as 4.03 µg/mL (≈ 14.6 µM) and the IC90 (A549 (human lung cancer)) is given as 17.29 µg/mL (≈ 62.6 µM). The “effect on growth of SGC-7901 cells cultured in vitro” value [1] was “significant inhibitory effect”, the IC50 [2] was 1.62 µg/mL (≈ 5.86 µM) and the IC90 [2] was 9.26 µg/mL (≈ 33.5 µM). For the same compound, the IC50 [3] was 3.18 µg/mL (≈ 11.5 µM), the IC90 [3] was 16.00 µg/mL (≈ 57.9 µM) and the IC50 [4] was 0.88 µg/mL (≈ 3.19 µM). It also gave an IC90 [4] of 4.17 µg/mL (≈ 15.1 µM), an IC50 [5] of 0.98 µg/mL (≈ 3.55 µM) and an IC90 [5] of 2.5 µg/mL (≈ 9.05 µM). The IC50 [6] was 1.83 µg/mL (≈ 6.62 µM), the IC90 [6] was over 16 µg/mL and the IC50 (MG63 (osteosarcoma)) was 0.96 µg/mL (≈ 3.47 µM). It also gave an IC90 (MG63 (osteosarcoma)) of over 16 µg/mL, an IC50 [7] of 2.7 µg/mL (≈ 9.77 µM) and an IC90 [7] of over 16 µg/mL. It also gave an IC50 [8] of 0.96 µg/mL (≈ 3.47 µM), an IC90 [8] of 10.86 µg/mL (≈ 39.3 µM) and an IC50 [9] of 2.19 µg/mL (≈ 7.93 µM). The IC90 [9] was 22.13 µg/mL (≈ 80.1 µM), the IC50 [10] was over 16 µg/mL and the IC90 [10] was over 16 µg/mL. The IC50 [11] was 0.99 µg/mL (≈ 3.58 µM), the IC90 [11] was 3.62 µg/mL (≈ 13.1 µM) and the in vivo bioavailability [12] was “low in vivo bioavailability”. It also gave an IC50 [13] of 1.74 µg/mL (≈ 6.3 µM), an IC90 [13] of 8.42 µg/mL (≈ 30.5 µM) and an IC50 (PC-3 (prostate cancer)) of 6.63 µg/mL (≈ 24 µM). For the same compound, the IC90 (PC-3 (prostate cancer)) was 10.57 µg/mL (≈ 38.3 µM), the IC50 [14] was 4 µg/mL (≈ 14.5 µM) and the IC90 [14] was over 16 µg/mL. For the same compound, the IC50 [15] was 3.03 µg/mL (≈ 11 µM), the IC90 [15] was over 16 µg/mL and the solubility in water [16] was “poor solubility in water”. It also gave an IC50 [17] of 3.15 µg/mL (≈ 11.4 µM), an IC90 [17] of over 16 µg/mL and an IC50 [18] of 7.4 µg/mL (≈ 26.8 µM). The IC90 [18] was over 16 µg/mL, the IC50 [19] was 3.5 µg/mL (≈ 12.7 µM) and the IC90 [19] was 13.06 µg/mL (≈ 47.3 µM). The “effect on tumor growth in tumor-bearing nude mice” value (tumor-bearing nude mice) was “can inhibit the tumor growth in the mice”, the IC50 [20] was 6.36 µg/mL (≈ 23 µM) and the IC90 [20] was 14.63 µg/mL (≈ 53 µM).
